Common to all, as to experiment: NCI-60 cell line screen, 48 h
Experiment [1] relates to SF-268 CNS.
The subject of experiment [2] is OVCAR-8 ovarian.
The subject of experiment [3] is ACHN renal.
Experiment [4] relates to HCT-116 colon.
The test system of experiment [5] is SW-620 colon.
In experiment [6] the test system is SK-MEL-2 melanoma.
Experiment [7] deals with SK-MEL-5 melanoma.
The subject of experiment [8] is SNB-75 CNS.
For experiment [9], the system named is OVCAR-4 ovarian.
The test system of experiment [10] is NCI-H23 lung.

Values joined by “and” are separate entries in the source; they are usually repeats but may differ in a detail not shown here. Equal entries are not always repeated.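 Results reflect a 48-hour exposure of cells in 96-well plates to compound at five concentrations. Abbreviation: GI50, concentration required for 50% inhibition of growth. Definition used: TGI = concentration required for complete inhibition of growth.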

With `N#Cc1c(N)nc(N2CCOCC2)c(C#N)c1-c1ccncc1`, the GI50 in [1] was over 100 µM; in experiment [2] it was over 100 µM; in experiment [3] it was 40.7 µM; in experiment [4], over 100 µM; in experiment [5] it was over 100 µM; in experiment [6], over 100 µM. Moreover, the GI50 in experiment [7] was over 100 µM; in [8], 41.4 µM; in [9], over 100 µM. Also, the TGI in experiment [1], in experiment [2], in experiment [3], in [4], in experiment [5] and in experiment [6] was over 100 µM throughout. Further, the TGI in experiment [7], in experiment [8] and in experiment [9] was over 100 µM each time.
`CCN(CC)CCCN1CCc2c([nH]c3ccccc23)C1c1cccnc1` (stereo not given): the TGI in [2], in experiment [3], in experiment [4], in experiment [5], in [10] and in experiment [6] was over 100 µM in each case. Further, the TGI in [7], in experiment [8] and in experiment [9] was over 100 µM each time.
As to `O=C(Nc1ccn(CCO)c(=O)n1)c1ccccc1`, the TGI in [1], in experiment [2], in experiment [3], in experiment [4], in [5] and in experiment [6] was over 100 µM each time. For the same compound, the TGI in experiment [7], in experiment [8] and in experiment [9] was over 100 µM each time.
Turning to `COc1ccc2occ(CCC(=O)O)c2c1`, the TGI in experiment [2], in [3], in experiment [4], in experiment [5], in experiment [10] and in experiment [7] was over 100 µM throughout. Moreover, the TGI in [8] and in [9] was over 100 µM each time.
Turning to `CCC(=O)CC(=O)CCC(=O)Nc1cc(C)ccc1C`, the TGI in experiment [1], in experiment [2], in experiment [3], in experiment [4], in experiment [5] and in experiment [10] was over 100 µM throughout. In addition, the TGI in experiment [6], in experiment [7] and in [8] was over 100 µM in each case.
As to `CCOC(=O)c1cnc2c(ccc3[nH]n(C)nc32)c1=O`, the TGI was over 100 µM in [1]; over 100 µM in experiment [2]; over 100 µM in [3]; 61.4 µM in experiment [4]; 36.8 µM in experiment [5]; over 100 µM in experiment [10]. In addition, the results for the TGI in experiment [6], in experiment [7] and in experiment [8] were 46.1 µM, over 100 µM and over 100 µM, respectively.
In the case of `Clc1ccc2c(c1)[nH]c1c2nc2ccccn21`, the TGI in experiment [1] was 87.7 µM and 37.1 µM; in [2], > 100 µM and 33.1 µM; in [3] it was 83 µM; in experiment [4], 48.3 µM and 46.6 µM; in experiment [5], 38.3 µM and 45.3 µM; in experiment [10], 72.3 µM and 44.9 µM. Also, the TGI in experiment [6] was > 100 µM and 17.8 µM; in experiment [7], > 100 µM and 30.2 µM; in [8], > 100 µM and 37.2 µM. In addition, the GI50 in experiment [2] is 44.5 µM and 17 µM; in experiment [3], 28.1 µM; in [7] it was 39.9 µM and 16.4 µM; in [8] it was 32.7 µM and 14.7 µM.
On to `CSc1nc(=O)n(CCC#N)nc1SC`, for which the TGI in experiment [1] was 53.1 µM; in experiment [2] it was over 100 µM; in [3], over 100 µM; in experiment [4], 30.1 µM; in experiment [5], 58.3 µM; in experiment [10], over 100 µM. Moreover, the TGI in experiment [6] was 39.8 µM; in experiment [7] it was 43 µM; in [8], over 100 µM.
On to `Cc1ccc(S(=O)(=O)N(C=O)N=C2CCN(Cc3ccccc3)CC2)cc1`, for which the TGI in experiment [2], in [3], in experiment [4], in experiment [5], in experiment [10] and in experiment [6] was over 100 µM throughout. For the same compound, the TGI in [7], in experiment [8] and in [9] was over 100 µM throughout.
For the compound `CC(C)CCC1CC2C(=O)N(c3ccccc3)C(=O)C2c2[nH]c3ccccc3c21` (stereo not given), the TGI in [1] is 13.5 µM; in [2], 11.7 µM; in experiment [3], 21.5 µM; in experiment [5], 13.1 µM; in [10], 12.9 µM; in experiment [7], 13 µM. The results for the TGI in [8] and in experiment [9] were 9.25 µM and 20.7 µM, respectively.
Take `NC(=S)N/N=C(\CC1OC(=O)c2ccccc21)c1ccc(Cl)cc1` (stereo not given): the TGI was over 100 µM in experiment [1]; 35.6 µM in experiment [2]; over 100 µM in [3]; 54.9 µM in experiment [4]; over 100 µM in [5]; 57.7 µM in [10]. In addition, the TGI in experiment [8] is over 100 µM; in [9], 99 µM.
Turning to `CC(C)N(C(=O)C12C3C4C1C1C4(C#N)C3C12C#N)C(C)C` (stereo not given), the TGI in [1], in [2], in experiment [3], in experiment [5], in experiment [10] and in [7] was over 100 µM throughout. Also, in experiment [9], the TGI was over 100 µM.
With `CC(C)C1=CC23CCC4C(C)(C(=O)O)CCCC4(C)C2CC1C1C(=O)N(c2ccc(Cc4ccc(N5C(=O)C6C7CC8C9(C)CCCC(C)(C(=O)O)C9CCC8(C=C7C(C)C)C6C5=O)cc4)cc2)C(=O)C13` (stereo not given), the TGI in experiment [1] amounted to 27.4 µM; in [2], 22.5 µM; in experiment [3] it was 17.8 µM; in experiment [4], 19.1 µM; in experiment [5] it was 31.2 µM; in experiment [10], 10.9 µM. Moreover, the TGI in experiment [6] is 26.4 µM; in experiment [7], 24.8 µM; in [9] it was 33.2 µM.

The values above are taken from PubChem BioAssay (NCI).
